Here are results for six compounds from US4623661A, “Lipoxygenase inhibiting compounds” (Abbott Laboratories, priority 1985, dated 1986).

SMILES strings stand for the structures.

Common to all, as to type: biochemical
The target in one experiment is T1, 15-lipoxygenase (Glycine max, UniProt P08170).
T1 construct: 15-lipoxygenase obtained from soybean; from tissue; host or cells: soybean
T1 sequence (P08170 1-839): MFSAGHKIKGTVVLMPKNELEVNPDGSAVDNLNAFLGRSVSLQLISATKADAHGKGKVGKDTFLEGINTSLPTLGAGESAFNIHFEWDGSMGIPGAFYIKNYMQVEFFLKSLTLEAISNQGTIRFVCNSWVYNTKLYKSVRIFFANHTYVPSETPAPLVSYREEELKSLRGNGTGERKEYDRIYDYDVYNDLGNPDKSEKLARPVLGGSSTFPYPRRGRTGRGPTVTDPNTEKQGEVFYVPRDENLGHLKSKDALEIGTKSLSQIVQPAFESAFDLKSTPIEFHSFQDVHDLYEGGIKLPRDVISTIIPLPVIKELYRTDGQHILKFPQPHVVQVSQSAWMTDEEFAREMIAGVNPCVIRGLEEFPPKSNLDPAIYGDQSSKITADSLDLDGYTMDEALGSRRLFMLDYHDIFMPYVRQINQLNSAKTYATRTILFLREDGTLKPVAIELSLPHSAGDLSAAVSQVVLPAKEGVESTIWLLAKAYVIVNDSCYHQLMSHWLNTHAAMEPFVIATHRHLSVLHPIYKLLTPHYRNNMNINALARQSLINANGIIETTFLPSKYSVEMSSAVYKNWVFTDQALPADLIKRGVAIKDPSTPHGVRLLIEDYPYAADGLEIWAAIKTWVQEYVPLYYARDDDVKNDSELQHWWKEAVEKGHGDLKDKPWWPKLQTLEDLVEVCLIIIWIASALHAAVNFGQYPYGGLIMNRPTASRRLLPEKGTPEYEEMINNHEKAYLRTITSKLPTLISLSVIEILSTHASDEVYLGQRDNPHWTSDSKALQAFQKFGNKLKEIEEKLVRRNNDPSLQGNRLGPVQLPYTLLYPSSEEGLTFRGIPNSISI
In words: 15-lipoxygenase inhibition (15-lipoxygenase obtained from soybean). To be noted: for inhibition at 10 µM: read-out: % Inhibition at Indicated Concentration, 15-lipoxygenase, 10 uM; for inhibition at 100 µM: read-out: % Inhibition at Indicated Concentration, 15-lipoxygenase, 100 uM. The protocol: (§1) The compounds of this invention are potent inhibitors of 5-, 12- and 15-lipoxygenase. An assay to determine 5-lipoxygenase activity was performed in incubations containing various concentrations of the test compound and the 20,000 G supernatant from 7.5×10^6 homogenized RBL-1 cells. Reactions were initiated by the addition of radiolabeled arachidonic acid and terminated by acidification and ether extraction. Reaction products were separated from nonconverted substrate by thin layer chromatography and measured by liquid scintillatiton spectroscopy. Inhibition of 5-lipoxygenase activity was calculated as the ratio of the amounts of product formed in the presence and absence of inhibitor.
(§2) The inhibitory activities of the compounds of this invention against 12- and 15-lipoxygenase can be determined in the foregoing assay in which 12-lipoxygenase obtained from human platelets, or 15-lipoxygenase obtained from soybean, is substituted for the 5-lipoxygenase-containing cell supernatant fraction.

The target of another experiment is T2, 12-lipoxygenase (Homo sapiens, UniProt P18054).
T2 construct: 12-lipoxygenase obtained from human platelets; from tissue; host or cells: human platelets
T2 sequence (P18054 1-663): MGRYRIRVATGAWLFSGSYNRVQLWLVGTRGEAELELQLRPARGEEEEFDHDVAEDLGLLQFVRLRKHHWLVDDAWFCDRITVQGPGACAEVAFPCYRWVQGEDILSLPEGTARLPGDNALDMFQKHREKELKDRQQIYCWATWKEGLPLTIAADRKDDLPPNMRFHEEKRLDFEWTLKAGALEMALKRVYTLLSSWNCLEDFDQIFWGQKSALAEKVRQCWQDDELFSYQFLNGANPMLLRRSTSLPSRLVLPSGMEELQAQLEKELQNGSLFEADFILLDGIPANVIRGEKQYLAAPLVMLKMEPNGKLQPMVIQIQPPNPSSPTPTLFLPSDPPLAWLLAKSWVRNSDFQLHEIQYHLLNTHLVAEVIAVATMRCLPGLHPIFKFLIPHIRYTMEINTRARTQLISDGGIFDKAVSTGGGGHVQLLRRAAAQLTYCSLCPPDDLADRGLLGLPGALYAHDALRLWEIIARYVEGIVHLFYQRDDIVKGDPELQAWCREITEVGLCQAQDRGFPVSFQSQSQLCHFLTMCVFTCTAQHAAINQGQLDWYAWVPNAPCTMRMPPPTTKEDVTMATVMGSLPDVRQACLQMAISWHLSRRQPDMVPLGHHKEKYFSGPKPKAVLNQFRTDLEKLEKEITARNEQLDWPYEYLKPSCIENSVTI
Put plainly: 12-lipoxygenase inhibition (12-lipoxygenase obtained from human platelets). The settings on record: for inhibition at 10 µM: read-out: % Inhibition at Indicated Concentration, 12-lipoxygenase, 10 uM; for inhibition at 100 µM: read-out: % Inhibition at Indicated Concentration, 12-lipoxygenase, 100 uM. As to the method:
as §1, §2

The next experiment deals with T3, 5-lipoxygenase (Rattus norvegicus, UniProt P12527).
T3 construct: 20,000 G supernatant from 7.5×10^6 homogenized RBL-1 cells; endogenous in cells; host or cells: RBL-1 cells (20,000 G supernatant of homogenate)
T3 sequence (P12527 1-673): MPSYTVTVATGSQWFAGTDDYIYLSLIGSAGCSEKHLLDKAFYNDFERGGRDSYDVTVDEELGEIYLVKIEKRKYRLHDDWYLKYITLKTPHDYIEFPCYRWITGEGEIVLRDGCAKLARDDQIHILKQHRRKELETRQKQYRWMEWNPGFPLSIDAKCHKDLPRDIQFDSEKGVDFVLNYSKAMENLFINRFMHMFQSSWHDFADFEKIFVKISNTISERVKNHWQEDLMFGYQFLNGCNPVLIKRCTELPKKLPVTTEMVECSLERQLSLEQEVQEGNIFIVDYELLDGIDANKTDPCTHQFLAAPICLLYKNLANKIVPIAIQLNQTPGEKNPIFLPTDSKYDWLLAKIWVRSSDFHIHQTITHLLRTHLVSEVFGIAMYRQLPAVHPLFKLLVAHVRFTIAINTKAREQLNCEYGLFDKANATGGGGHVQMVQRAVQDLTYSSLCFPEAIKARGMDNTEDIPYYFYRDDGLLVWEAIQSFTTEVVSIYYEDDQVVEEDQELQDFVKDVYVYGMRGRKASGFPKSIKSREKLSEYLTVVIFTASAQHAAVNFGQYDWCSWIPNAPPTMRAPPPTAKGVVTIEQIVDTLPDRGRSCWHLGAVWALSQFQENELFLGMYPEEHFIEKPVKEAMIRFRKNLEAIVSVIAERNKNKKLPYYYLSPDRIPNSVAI
Put plainly: 5-Lipoxygenase IC50 determination (20,000 G supernatant from homogenized RBL-1 cells, radiolabeled arachidonic acid). To be noted: RBL-1 cell 20,000 G supernatant; linear regression of % inhibition vs log concentration. As to the method: Reactions were initiated by the addition of radiolabeled arachidonic acid and terminated by acidification and ether extraction. Reaction products were separated from nonconverted substrate by thin layer chromatography and measured by liquid scintillatiton spectroscopy. Inhibition of 5-lipoxygenase activity was calculated as the ratio of the amounts of product formed in the presence and absence of inhibitor.

In the case of `CN(O)C(=O)C=Cc1ccc(-c2ccccc2)cc1` [Example 1, N-Methyl 3-(4-biphenyl)acrylohydroxamic acid], the inhibition at 10 µM on 15-lipoxygenase came to 52%; at 12-lipoxygenase it was 63%. Further, the inhibition at 100 µM on 15-lipoxygenase worked out at 74%; at 12-lipoxygenase it was 68%.
On the same counts, the results for `CN(O)C(=O)C=Cc1cccc(-c2ccccc2)c1` [Example 2, N-methyl-3-(3-biphenyl)-acrylohydroxamic acid] are 43%, 99%, 85% and 96%.
The IC50 is the concentration that inhibits the measured activity by half. For `O=C(NO)c1ccc(-c2ccccc2)cc1` [Example 7, 4-biphenyl hydroxamic acid], at 15-lipoxygenase, the inhibition at 10 µM was determined as 0% and the inhibition at 100 µM came out at 30%. Besides, at 12-lipoxygenase, the inhibition at 10 µM was 86% and the inhibition at 100 µM was 97%. The compound also returned an IC50 on 5-lipoxygenase of 4100 nM.
In the case of `O=C(NO)c1cccc(-c2ccccc2)c1` [Example 8, 3-biphenyl hydroxamic acid], at 15-lipoxygenase, the inhibition at 10 µM stood at 33% and the inhibition at 100 µM was 33%. Besides, half-maximal inhibition at 5-lipoxygenase (IC50) required 6000 nM.
At 5-lipoxygenase, `O=C(NO)c1ccc2c(ccc3ccccc32)c1` [Example 12, 2-Phenanthrylhydroxamic acid] came in with an IC50 of 1900 nM.
`O=C(NO)c1ccc2ccc3ccccc3c2c1` [Example 13, 3-Phenanthryl hydroxamic acid]: on 15-lipoxygenase, the inhibition at 10 µM is 25% and the inhibition at 100 µM is 39%. At 5-lipoxygenase, this compound came in with an IC50 of 1200 nM.
